Test system: common carp
Test: Five-hour sedation of common carp, linalool versus 2-phenoxyethanol
Type: in vivo
Details: linalool 40 ppm, 2-PE 200 ppm; for Number of fish exhibiting loss of upright position: 26° C.
Protocol: 2-Phenoxyethanol (2-PE) is used to sedate fish in vaccinations procedures for relatively long periods of time (3 hours). 35 common carp were placed in each of two 60-liter tanks containing water at 26° C. Into one tank was added linalool (in a formulation as described in Example 28) to a concentration of 40 ppm; into the other tank was added 2-PE to a concentration of 200 ppm. Sedation of fish was determined by observation of loss of upright position, operculum movement and response to stimulus (handling). Total exposure time was five hours, at the end of which the fish were transferred 60-liter recovery tanks containing untreated water.

OCCOc1ccccc1 [2-phenoxyethanol, 2-Phenoxyethanol, reference compound]
Number of fish exhibiting loss of upright position (35 common carp per tank, time 10:30 (start), aeration): 0
Number of fish exhibiting loss of upright position (35 common carp per tank, time 11:00 (start 10:30), no aeration): 1
Number of fish exhibiting loss of upright position (35 common carp per tank, time 11:40 (start 10:30), no aeration): 2
Number of fish exhibiting loss of upright position (35 common carp per tank, time 12:35 (start 10:30), no aeration): 2
Number of fish exhibiting loss of upright position (35 common carp per tank, time 13:35 (start 10:30), no aeration): 2
Number of fish exhibiting loss of upright position (35 common carp per tank, time 14:30 (start 10:30), aeration): 2
Number of fish exhibiting loss of upright position (35 common carp per tank, time 15:30 (start 10:30), aeration): None
survival at transfer to recovery tank (35 common carp per tank, after five hours exposure): All alive
reflex response over the 5 hours of exposure (common carp): reduced substantially from the beginning of the trial and increased with the passage of time until the end of the trial
sedative effect between 3 and 5 hours of exposure (common carp): reduced
recovery after placement in a recovery tank (common carp, after five hours exposure): recovered quickly in few minutes and did not show signs of stress
response to external stimulation during the first 3 hours (common carp, sedation levels enabled handling): did not respond to external stimulation

— patent US20140259191A1, “FISH ANESTHETIC AND METHOD” (AQUA-MOR TECHNOLOGIES LTD., priority 2011, published 2014)
